≈ marks a conversion by molar mass, not a printed value. Read-outs that look alike come from different tables or passages of the source.
Experiments:
M. tuberculosis H37Rv [1] = test: Conventional CFU determination in infected macrophages; assay type: cell-based, Mycobacterium tuberculosis
BJ-Skin = test: Cytotoxicity assay (resazurin); assay type: cell-based; settings: 5 days
Protocol: (§1) In order to address compound toxicity, seven cell lines originating from different body tissues were cultivated in the presence of 3-fold dilutions of compounds starting from 100 μM. After 5 days of culture, cell viability was assessed by the resazurin test. Briefly, cells were incubated with 10 μg/mL of resazurin (Sigma-Aldrich St. Louis, Mo.) for 4 h at 37° C. under 5% CO2. Resofurin fluorescence (RFU) was measured as indicated above. Percentage of toxicity on cells was calculated as follows: Cytotoxicity (%)=(RFUDMSO−RFUBlank)−(RFUcompound−RFUblank)/(RFUDMSO−RFUBlank)×100. Percentage of cytotoxicity was plotted against compound concentration and the minimal toxic concentration (MTC50) was determined by non-linear regression analysis as the lowest compound concentration where fifty percent toxicity was observed on the corresponding cell line.

HEK293-Kidney = test: Cytotoxicity assay (resazurin); assay type: cell-based; settings: 5 days
Protocol: as §1

HepG2-Hepatocytes = test: Cytotoxicity assay (resazurin); assay type: cell-based; settings: 5 days
Protocol: as §1

MRC5-Lung = test: Cytotoxicity assay (resazurin); assay type: cell-based; settings: 5 days
Protocol: as §1

SK-N-SH-Brain = test: Cytotoxicity assay (resazurin); assay type: cell-based; settings: 5 days
Protocol: as §1

[2] = test system: M. tuberculosis clinical isolates; assay type: cell-based, Mycobacterium tuberculosis
M. tuberculosis H37Rv [3] = test: MIC, in vitro bacterial growth assay; assay type: cell-based; settings: Mycobacterium tuberculosis; laboratory strain H37Rv; read-out: MIC
M. tuberculosis H37Ra = test: MIC, in vitro bacterial growth assay; assay type: cell-based; settings: Mycobacterium tuberculosis; laboratory strain H37Ra; read-out: MIC
[4] = test system: M. tuberculosis Beijing 1237; test: MIC, in vitro bacterial growth assay; assay type: cell-based; settings: Mycobacterium tuberculosis, BEIJING1237; laboratory strain Beijing 1237
M. bovis BCG Tokyo = test: microbe, parasite or virus in culture; assay type: cell-based; settings: Mycobacterium tuberculosis variant bovis BCG
M. bovis BCG Pasteur = test: microbe, parasite or virus in culture; assay type: cell-based; settings: Mycobacterium tuberculosis variant bovis BCG
M. smegmatis mc^2 155 = test: MIC, in vitro bacterial growth assay; assay type: cell-based, Mycobacterium smegmatis; settings: Mycolicibacterium smegmatis, MC^2155
Antimicrobial spectrum [5] = assay type: cell-based; settings: Gram-negative panel
Antimicrobial spectrum [6] = assay type: cell-based; settings: Gram-positive panel
C. striatum = test: Antimicrobial spectrum; assay type: cell-based, Corynebacterium; settings: Corynebacterium C. striatum
C. jeikeium = test: Antimicrobial spectrum; assay type: cell-based, Corynebacterium; settings: Corynebacterium C. jeikeium
[7] = test system: Fungi: Candida albicans, C. glabrata, C. parapsilosis; test: Antimicrobial spectrum; assay type: cell-based; settings: Candida panel
[8] = test system: panel of cell lines derived from different body tissue; test: Cytotoxicity assay (resazurin), whole panel; settings: 5 days co-incubation, 133 up to 100 μM
[9] = test system: M. tuberculosis H37Rv-GFP; test: microbe, parasite or virus in culture; assay type: cell-based, Mycobacterium tuberculosis; settings: for inhibition at 20 µM: Mycobacterium tuberculosis, H37RV, Macrophage
Raw264.7 cells [10] = settings: mouse
Raw264.7 cells [11] = test: Cell number (CellNb) from image analysis of the phenotypic cell-based assay
[12] = compounds 5 μM, Raw264.7, mouse bone marrow-derived macrophages, human primary macrophages, five days after infection
[13] = confirmation, 20 uM, read-out: QIM Confirm % Inhibition 20 uM
[14] = primary screen, 20 μM, read-out: Primary QIM % Inhibition

O=C(NCCOCc1ccccc1)c1cc([N+](=O)[O-])cc([N+](=O)[O-])c1 [compound 24, N-(2-(Benzyloxy)ethyl)-3,5-dinitrobenzamide]
decrease in the number of CFUs (M. tuberculosis H37Rv [1]; [12]): ten-fold decrease | Range of MTC50 (BJ-Skin): >100 µM | Range of MTC50 (HEK293-Kidney): >100 µM | Range of MTC50 (HepG2-Hepatocytes): >100 µM | Range of MTC50 (MRC5-Lung): >100 µM | Range of MTC50 (SK-N-SH-Brain): >100 µM | Range of MICs for multiple strains ([2]; Drug Sensitive, Tissue): 0.31 µM | Range of MICs for multiple strains ([2]; INH^R RIF^R Strep^R, Sputum): 0.08 µM | Range of MICs for multiple strains ([2]; INH^R RIF^R Strep^R, Tissue): 0.04 to 0.08 µM | Range of MICs for multiple strains ([2]; MDR, Sputum): 0.04 to 0.08 µM | Range of MICs for multiple strains ([2]; MDR, Tissue): 0.04 to 0.08 µM | Range of MICs for multiple strains ([2]; RIF^R, Sputum): 0.08 µM | Range of MICs for multiple strains ([2]; RIF^R, Tissue): 0.08 µM | Range of MICs for multiple strains ([2]; XDR, Sputum): 0.04 to 0.08 µM | Range of MICs for multiple strains ([2]; XDR, Tissue): 0.08 µM | MIC (M. tuberculosis H37Rv [3]): 0.6 µM (≈ 0.207 µg/mL) | MIC (M. tuberculosis H37Ra): 1.3 µM (≈ 0.449 µg/mL) | MIC [4]: 0.1 µM (≈ 0.0345 µg/mL) | MIC (M. bovis BCG Tokyo): 0.6 µM (≈ 0.207 µg/mL) | MIC (M. bovis BCG Pasteur): 1.2 µM (≈ 0.414 µg/mL) | MIC (M. smegmatis mc^2 155): 0.6 µM (≈ 0.207 µg/mL) | MIC (Antimicrobial spectrum [5]): > 250 µM | MIC (Antimicrobial spectrum [6]): > 250 µM | MIC (C. striatum): 27 µM (≈ 9.32 µg/mL) | MIC (C. jeikeium): 2.7 µM (≈ 0.932 µg/mL) | MIC [7]: > 250 µM | cytotoxicity against the panel of cell lines [8]: no cytotoxicity

COc1cccn2c(=O)c(CO)c(Nc3ccc(F)c(F)c3)nc12
melting point: 231 °C (dec.)

CS(=O)(=O)O[C@H]1CCN(C(=O)c2cc([N+](=O)[O-])cc([N+](=O)[O-])c2)C1
melting point: 138 to 140 °C

CNC(=O)c1c(Nc2ccc(F)c(Cl)c2)nc2c(OC)cccn2c1=O
melting point: 218 °C (dec.)

CCCCN(CCCC)C(=O)c1ccc(C(C)(C)C)cc1 [IPK 000 067 60]
inhibition at 20 µM [9, 13]: 46.6% | inhibition at 20 µM [9, 14]: 63.4% | QIM Confirm CellNb 2 uM (Raw264.7 cells [10]; 5 days, 2 uM): 99.7 | Primary QIM CellNb (Raw264.7 cells [10]; 5 days, 20 μM): 25.8 | QIM Confirm CellNb 2 uM (Raw264.7 cells [11]; confirmation, 2 uM): 179.1 | Primary QIM CellNb (Raw264.7 cells [11]; primary screen, 20 μM): 164.3

O=C(N/N=C/c1ccc(Cl)cc1Cl)c1ccncc1 [IPK 000 043 13]
inhibition at 20 µM [9, 13]: 104% | inhibition at 20 µM [9, 14]: 49.2% | Primary QIM CellNb (Raw264.7 cells [10]; 5 days, 20 μM): 101.6 | Primary QIM CellNb (Raw264.7 cells [11]; primary screen, 20 μM): 177.8

O=C(Nc1ccc(Cl)cc1[N+](=O)[O-])c1ccc([N+](=O)[O-])cc1Cl [IPK 000 049 00]
inhibition at 20 µM ([9]; read-out: Primary QIM % Inhibition): 32.1% | inhibition at 20 µM ([9]; read-out: QIM Confirm % Inhibition 20 uM): 74.2% | Primary QIM CellNb (Raw264.7 cells [10]): 72.2 | Primary QIM CellNb (Raw264.7 cells [11]): 108.0

NNC(=O)c1ccc(COc2ccccc2Br)o1 [IPK 000 124 64]
inhibition at 20 µM [9, 13]: 78.2% | inhibition at 20 µM [9, 14]: 79.9% | Primary QIM CellNb (Raw264.7 cells [10]; 5 days, 20 μM): 54.7 | Primary QIM CellNb (Raw264.7 cells [11]; primary screen, 20 μM): 501.5

CCOC(=O)C1=C(C)NC2=C(C(=O)CC(c3ccccc3)C2)C1c1cccc(O)c1 (stereo not shown) [IPK 000 083 89]
inhibition at 20 µM [9, 13]: 59.1% | inhibition at 20 µM [9, 14]: 73.5% | Primary QIM CellNb (Raw264.7 cells [10]; 5 days, 20 μM): 19.5 | Primary QIM CellNb (Raw264.7 cells [11]; primary screen, 20 μM): 38.8

C/C(=N\NC(=O)c1cccc(F)c1)c1ccc2ccccc2c1 [IPK 000 104 07]
inhibition at 20 µM [9, 13]: 80.2% | inhibition at 20 µM [9, 14]: 82.3% | Primary QIM CellNb (Raw264.7 cells [10]; 5 days, 20 μM): 65.1 | Primary QIM CellNb (Raw264.7 cells [11]; primary screen, 20 μM): 243.5

CCOc1ccc2ccccc2c1/C=N/NC(=O)c1ccncc1 [IPK 000 043 62]
inhibition at 20 µM [9, 13]: 104% | inhibition at 20 µM [9, 14]: 98.2% | Primary QIM CellNb (Raw264.7 cells [10]; 5 days, 20 μM): 98.8 | Primary QIM CellNb (Raw264.7 cells [11]; primary screen, 20 μM): 393.8

COc1ccc(OCCNC(=O)c2cc([N+](=O)[O-])cc([N+](=O)[O-])c2)cc1 [compound 4, N-(2-(4-Methoxyphenoxy)ethyl)-3,5-dinitrobenzamide]
decrease in the number of CFUs (M. tuberculosis H37Rv [1]; [12]): ten-fold decrease | Range of MTC50 (BJ-Skin): >100 µM | Range of MTC50 (HEK293-Kidney): >100 µM | Range of MTC50 (HepG2-Hepatocytes): >100 µM | Range of MTC50 (MRC5-Lung): >100 µM | Range of MTC50 (SK-N-SH-Brain): >100 µM | Range of MICs for multiple strains ([2]; Drug Sensitive, Tissue): 0.38 µM | Range of MICs for multiple strains ([2]; INH^R RIF^R Strep^R, Sputum): 0.1 µM | Range of MICs for multiple strains ([2]; INH^R RIF^R Strep^R, Tissue): 0.05 to 0.1 µM | Range of MICs for multiple strains ([2]; MDR, Sputum): 0.05 to 0.1 µM | Range of MICs for multiple strains ([2]; MDR, Tissue): 0.05 to 0.1 µM | Range of MICs for multiple strains ([2]; RIF^R, Sputum): 0.05 µM | Range of MICs for multiple strains ([2]; RIF^R, Tissue): 0.02 to 0.05 µM | Range of MICs for multiple strains ([2]; XDR, Sputum): 0.02 to 0.05 µM | Range of MICs for multiple strains ([2]; XDR, Tissue): 0.05 to 0.1 µM | MIC (M. tuberculosis H37Rv [3]): 0.6 µM (≈ 0.217 µg/mL) | MIC (M. tuberculosis H37Ra): 1.2 µM (≈ 0.434 µg/mL) | MIC [4]: 0.3 µM (≈ 0.108 µg/mL) | MIC (M. bovis BCG Tokyo): 1.2 µM (≈ 0.434 µg/mL) | MIC (M. bovis BCG Pasteur): 1.2 µM (≈ 0.434 µg/mL) | MIC (M. smegmatis mc^2 155): 1.2 µM (≈ 0.434 µg/mL) | MIC (Antimicrobial spectrum [5]): > 250 µM | MIC (Antimicrobial spectrum [6]): > 250 µM | MIC (C. striatum): 27 µM (≈ 9.76 µg/mL) | MIC (C. jeikeium): 2.7 µM (≈ 0.976 µg/mL) | MIC [7]: > 250 µM | cytotoxicity against the panel of cell lines [8]: no cytotoxicity

CC(Oc1cccc2ccccc12)C(=O)NNC(=O)c1cc2ccccc2oc1=O (stereo not shown) [IPK 000 095 07]
inhibition at 20 µM [9, 13]: 75.8% | inhibition at 20 µM [9, 14]: 70.9% | Primary QIM CellNb (Raw264.7 cells [10]; 5 days, 20 μM): 8.0 | Primary QIM CellNb (Raw264.7 cells [11]; primary screen, 20 μM): 388.3

CCOc1nnc(NS(=O)(=O)c2ccc(/N=C/c3ccccc3O)cc2)s1 [IPK 000 080 01]
inhibition at 20 µM [9, 13]: 56.6% | inhibition at 20 µM [9, 14]: 14.3% | Primary QIM CellNb (Raw264.7 cells [10]; 5 days, 20 μM): 27.4 | Primary QIM CellNb (Raw264.7 cells [11]; primary screen, 20 μM): 409.8

Cc1cccn2c(=O)c(CO)c(Nc3cccc(Cl)c3)nc12 [compound 232, 2-(3-Chlorophenylamino)-3-(hydroxymethyl)-9-methyl-4H-pyrido[1,2-a]pyrimidin-4-one]
bacterial load and host cell abundance versus DMSO control [9]: harbored fewer bacteria compared to DMSO control and were more abundant | decrease in the number of CFUs (M. tuberculosis H37Rv [1]; human and mouse cells, seven days after infection, 232 at 20 μM): ten-fold decrease

— patent publication US8785452B2, “Anti-infective compounds” (priority 2008, dated 2014)
